{"source": "paper PMC4257678", "about": "“Influence of Sampling on the Determination of Warfarin and Warfarin Alcohols in Oral Fluid” (PLoS ONE, 2014)", "key": {"[1]": {"test": "not given", "remark": "listed apart in the source"}, "[2]": {"details": "PBS 25 mM pH 7 / 1-octanol, 25°C, 24 hours, n = 3", "method": "The LogKow value at pH = 7 of both diastereoisomers of WAROHs was determined using the standardized OECD guidelines [25]. Briefly, a standard working solution of WAROHs (1000 ng/mL, C1) was prepared in triplicate in the PBS buffer (25 mM at pH = 7) and then mechanically stirred with an equal volume (4 mL) of 1-octanol at 25°C for 24 hours. The phase separation was obtained at room temperature by centrifuging at 5000 rpm for 5 min. […] The concentration in the organic phase was calculated by subtracting C2 and C3 from C1. LogKow at pH = 7 is expressed as the ratio of the compound concentration in the organic phase to that in the aqueous phase.\nThe value of LogKow at pH = 7 of both diastereoisomers of WAROHs was determined by the standardized shake-flask method. Octanol was added to a working solution of the WAROHs prepared in PBS at pH 7.0."}, "[3]": {"test": "dissociation constant by HPLC-FLD at different mobile phase pH and methanol content", "details": "for best aqueous pKa: psKa vs Rwt% extrapolated at zero organic content", "procedure": "In brief, a standard working solution of WAROHs (1060 ng/mL) was prepared in a PBS buffer (25 mM at different pH value) and then analyzed in triplicate by HPLC-FLD. This approach is based on the different chromatographic behaviour of dissociated and non-dissociated forms of each compound at different pH values of the mobile phase. The pH was lowered in steps of 1 unit and ranged from 7.0 to 3.0. To reach the required pH, different aliquots of H3PO4 (85 wt% in H2O) were added to the mobile phase. The resulting pH was further checked by a pH-meter.\nThe capacity factor to pH variation ratio (Δk’/ΔpH) of both diastereoisomers was determined with different contents of organic modifiers (Rwt%: 40, 50 and 60) in the methanol-PBS mobile phase. The cosolvent dissociation constant (psKa) value was calculated by equation 1 [27]: [drawing 1] (1) where k’ HA and k’ A are the capacity factors of non-dissociate and dissociate forms, respectively. The pH and k’ values were defined as the corresponding point with a […] slope in the Δk’/ΔpH plot.\nThe dissociation constant (pKa) of both diastereoisomers of WAROHs was determined at different pH values of the mobile phase by the HPLC-FLD method by varying the organic solvent/water ratio."}, "[4]": {"set-up": "method as in PMID 16867718", "details": "at 25°C; cited from earlier work"}, "[5]": {"set-up": "method as in PMID 16867718", "details": "T = 25°C; cited from earlier work"}, "[6]": {"details": "14 patients undergoing WAR therapy"}}, "note": "Read-outs that look alike come from different tables or passages of the source.", "data": [{"smiles": "CC(O)CC(c1ccccc1)c1c(O)c2ccccc2oc1=O", "note": "(centres unmarked) [RS/SR-warfarin alcohols]", "values": [{"measurement": "total plasma concentration (mean ± s.d.)", "setting": "[6]", "result": "600 ± 300", "unit": "ng/mL"}, {"measurement": "total plasma concentration (range)", "setting": "[6]", "result": "100 to 1100", "unit": "ng/mL"}, {"measurement": "unbound plasma concentration (mean ± s.d.)", "setting": "[6]", "result": "5 ± 3", "unit": "ng/mL"}, {"measurement": "unbound plasma concentration (range)", "setting": "[6]", "result": "1 to 10", "unit": "ng/mL"}, {"measurement": "concentration in non-stimulated OF samples (mean ± s.d.)", "setting": "[1]; [6]", "result": "3 ± 2", "unit": "ng/mL"}, {"measurement": "concentration in non-stimulated OF samples (range)", "setting": "[1]; [6]", "result": "1 to 5", "unit": "ng/mL"}, {"measurement": "concentration in stimulated OF samples (mean ± s.d.)", "setting": "[1]; [6]", "result": "3 ± 2", "unit": "ng/mL"}, {"measurement": "concentration in stimulated OF samples (range)", "setting": "[1]; [6]", "result": "1 to 6", "unit": "ng/mL"}, {"measurement": "concentration in pooled patients oral fluid sample", "setting": "[1]; Figure 2E, extracted PPOFS", "result": 10.1, "unit": "ng/mL"}, {"measurement": "LogKow at pH = 7", "setting": "[2]", "result": "0.93 ± 0.01"}, {"measurement": "best aqueous pKa", "setting": "[3]", "result": "5.73 ± 0.03"}]}, {"smiles": "CC(O)CC(c1ccccc1)c1c(O)c2ccccc2oc1=O", "note": "(centres unmarked) [RR/SS-warfarin alcohols]", "values": [{"measurement": "total plasma concentration (mean ± s.d.)", "setting": "[6]", "result": "30 ± 20", "unit": "ng/mL"}, {"measurement": "total plasma concentration (range)", "setting": "[6]", "result": "13 to 82", "unit": "ng/mL"}, {"measurement": "concentration in pooled patients oral fluid sample", "setting": "[1]; Figure 2E, extracted PPOFS", "result": 0.6, "unit": "ng/mL"}, {"measurement": "LogKow at pH = 7", "setting": "[2]", "result": "0.83 ± 0.01"}, {"measurement": "best aqueous pKa", "setting": "[3]", "result": "6.55 ± 0.04"}]}, {"smiles": "CC(=O)CC(c1ccccc1)c1c(O)c2ccccc2oc1=O", "note": "(stereo not drawn) [WAR, 3-(α-acetonylbenzyl)-4-hydroxycoumarin, reference compound]", "values": [{"measurement": "total plasma concentration (mean ± s.d.)", "setting": "human, in vivo", "result": "1300 ± 500", "unit": "ng/mL"}, {"measurement": "total plasma concentration (range)", "setting": "human, in vivo", "result": "400 to 2000", "unit": "ng/mL"}, {"measurement": "unbound plasma concentration (mean ± s.d.)", "setting": "human, in vivo", "result": "9 ± 4", "unit": "ng/mL"}, {"measurement": "unbound plasma concentration (range)", "setting": "human, in vivo", "result": "3 to 17", "unit": "ng/mL"}, {"measurement": "concentration in non-stimulated OF samples (mean ± s.d.)", "setting": "[1]; human, in vivo", "result": "3 ± 2", "unit": "ng/mL"}, {"measurement": "concentration in non-stimulated OF samples (range)", "setting": "[1]; human, in vivo", "result": "1 to 5", "unit": "ng/mL"}, {"measurement": "concentration in stimulated OF samples (mean ± s.d.)", "setting": "[1]; human, in vivo", "result": "6 ± 3", "unit": "ng/mL"}, {"measurement": "concentration in stimulated OF samples (range)", "setting": "[1]; human, in vivo", "result": "1 to 14", "unit": "ng/mL"}, {"measurement": "concentration in pooled patients oral fluid sample", "setting": "[1]; human, in vivo, po", "result": 9.8, "unit": "ng/mL"}, {"measurement": "LogKow at pH = 7", "setting": "[2]", "result": "0.94 ± 0.05"}, {"measurement": "LogP", "setting": "[4]", "result": "2.82 ± 0.06"}, {"measurement": "pKa", "setting": "[5]", "result": "5.15 ± 0.04"}, {"measurement": "pKa", "setting": "[3]", "result": "5.42 ± 0.03"}]}]}
